Four compounds from patent publication US7186722B2, “2-heteroaryl-3,4-dihydro-2h-pyrrole derivatives and the use thereof as pesticides” (Bayer Cropscience AG, priority 2001, dated 2007) can be followed below.

Molecules are shown by their SMILES.

Common to all, as to assay type: in vivo
For one test, the system named is Meloidogyne incognita. The test can be described thus: Meloidogyne Test. To be noted: 20 ppm, nematicidal action by formation of galls on lettuce roots. The method, then:
(§1) • Solvent: 30 parts by weight of dimethylformamide • Emulsifier: 1 part by weight of alkylaryl polyglycol ether
To produce a suitable preparation of active compound, 1 part by weight of active compound is mixed with the stated amount of solvent and emulsifier, and the concentrated is diluted with water to the desired concentration.
Vessels are filled with sand, solution of active compound, Meloidogyne incognita egg/larvae suspension and lettuce seeds. The lettuce seeds germinate and the plants develop. On the roots galls are formed.
After the desired period of time, the nematicidal action is determined in % by the formation of galls. 100% means that no galls have been found; 0% means that the number of galls on the treated plants corresponds to that of the untreated control.

Test [1] relates to peach aphid (Myzus persicae). The test can be described thus: Myzus Test. To be noted: 1000 ppm, cabbage leaves dipped. Here is the method:
• Solvent: 7 parts by weight of dimethylformamide • Emulsifier: 1 part by weight of alkylaryl polyglycol ether
(§2) To produce a suitable preparation of active compound, 1 part by weight of active compound is mixed with the stated amounts of solvent and emulsifier, and the concentrate is diluted with emulsifier-containing water to the desired concentration.
Cabbage leaves (Brassica oleracea) which are heavily infested by the peach aphid (Myzus persicae) are treated by being dipped into the preparation of active compound of the desired concentration.
After the desired period of time, the kill in % is determined. 100% means that all aphids have been killed; 0% means that none of the aphids have been killed.

The subject of test [2] is caterpillars of the diamond back moth (Plutella xylostella). Briefly: Plutella Test. The settings on record: 8 ppm, cabbage leaves dipped. The method, then: as §1, §2
Cabbage leaves (Brassica oleracea) are treated by being dipped into the preparation of active compound of the desired concentration and are populated with caterpillars of the diamond back moth (Plutella xylostella) while the leaves are still moist.
After the desired period of time, the kill in % is determined. 100% means that all caterpillars have been killed; 0% means that none of the caterpillars have been killed.

Test [3] has as its system greenhouse red spider mite (Tetranychus urticae). Briefly: Tetranychus Test (OP-resistent/dip treatment). The settings on record: 500 ppm, bean plants dipped, OP-resistent. The method, then: Tetranychus Test (OP-Resistent/Dip Treatment)
as §1, §2
Bean plants (Phaseolus vulgaris) which are heavily infested by all stages of the greenhouse red spider mite (Tetranychus urticae) are dipped into a preparation of active compound of the desired concentration.
After the desired period of time, the effect in % is determined. 100% means that all spider mites have been killed; 0% means that none of the spider mites have been killed.

Regarding `Fc1cccc(F)c1C1=NC(c2ccc(-c3cccc(OC(F)(F)F)c3)s2)CC1` (stereo not shown) [drawing 85], in the test with Meloidogyne incognita, the “Kill rate in % after 14 d” value stood at 98%.
Take `Fc1cccc(F)c1C1=NC(c2cc3ccccc3s2)CC1` (stereo not shown) [drawing 86]: the “Kill rate in % after 6 d” value in test [1] is reported as 95%.
With `Fc1cccc(F)c1C1=NC(c2ccc(-c3ccc(OC(F)(F)F)cc3)s2)CC1` (stereo not shown) [drawing 90], in test [2], the “Kill rate in % after 6 d” value worked out at 90%.
Take `Fc1cccc(F)c1C1=NC(c2cc3sc(-c4ccc(OC(F)(F)F)cc4)cc3s2)CC1` (stereo not shown) [drawing 97]: the “Kill rate in % after 7 d” value in test [3] stood at 80%.
